Data published in patent EP0472573B1, “HERBICIDE RESISTANT MAIZE” (ZENECA LIMITED, priority 1989, dated 1990).

These compounds were tested against ALS enzyme extracted from Mutant 6 (heterozygous) (assay: ALS enzyme assay, heterozygous Mutant 6). Settings: ALS of heterozygous Mutant 6; read-out: ID50% (the source's name).
Format: biochemical, Zea mays
Protocol: (§1) Seeds of generation M₁BC₁ M₁BC₂ of the nine mutants were sprayed pre-emergence with the herbicide imazethapyr (PURSUIT) (Trade Mark) at a rate of 250 g/ha and grown in a growth chamber (16 hour day, 27°C; 8 hour night, 17°C). Plants were harvested after 11 days.
(§2) Four grams of leaf material were harvested from just above the first leaf axis and ground in a mortar and pestle in 20ml of a solution containing 40mM Tricine (Trade Mark), 10mM EDTA, 5mM pyruvate, 80 »M flavin adenine dinucleotide (FAD), 1mM dithiothreitol (DTT), pH 8, plus 0.8g Polyclar AT. The homogenate was pressed through four layers of muslin and centrifuged at 30,000g for 20 minutes.
(§3) The supernatant was brought to 65% saturation with ammonium sulphate, left to precipitate for 30 minutes and then centrifuged at 30.000g for 20 minutes. The pellet was resuspended in 2.5ml of 40mM Tricine, 10mM EDTA, 5mM pyruvate, 80»M FAD, 25% (v/v) glycerol, 1mM DTT, pH 8, and desalted into 3.5ml of 40mM Tricine, 10mM EDTA, 25% (v/v) glycerol, 1mM DTT, pH 8.
(§4) One hundred microlitres of the enzyme extract was used for each assay. Final reagent concentrations were: 120mM Tricine, 50mM pyruvate, 10mM MgCl₂, […], 93»M thiamine pyrophosphate (TPP), pH 8, in the presence or absence of a herbicide of interest, in a volume of 750 »l. Incubations were carried out at 37°C for 30 minutes. Reactions were stopped with 250»l of 1.84M sulphuric acid, and decarboxylation of the acetolactate carried out at 37°C for 75 minutes, or at 60°C for 30 minutes. Assay blanks had sulphuric acid added prior to the enzyme extract. To the samples and blanks 650»l of α-naphthol in 2.73M NaOH/0.16%(w/v) creatine were added followed by incubation at 37°C for 30 minutes. After centrifugation at 30,000g the optical density of the supernatant was read at 540nm.
(§5) The assay procedure described was carried out on ALS enzyme extracted from each of the nine mutants for the following herbicides: imazethapyr (PURSUIT) imazapyr (ARSENAL) imazaquin (SCEPTER) chlorsulfuron (GLEAN) chlorimuron (CLASSIC) […] (HARMONY) The enzyme activity graphs are given as Figures 3 to 8. In addition, homozygous lines of mutants 1 and 2 which were selected from generation M₁BC₁S₂, were also tested against the same group of herbicides and against representatives of the triazolopyrimidines and phenoxypyrimidines. The chemical structures of these herbicides are shown in Figure 2 of the accompanying drawings.
(§6) From the enzyme assay data it is possible to derive, as a measure of the degree of inhibition the factor ID50% for each mutant and for each herbicide. This factor is indicative of the herbicide concentration which gives 50% inhibition of the ALS activity in comparison with the wild-type control. It is also possible to derive the fold increase in resistance.

Row | SMILES | IC50 [µM]
1 | CC(C)C1(C)N=C(c2nc3ccccc3cc2C(=O)O)NC1=O (stereo not drawn) [Imazaquin, imazaquin] | 1.5
2 | CCc1cnc(C2=NC(=O)C(C)(C(C)C)N2)c(C(=O)O)c1 (stereo not drawn) [Imazethapyr, 5-ethyl-2-(5-iso-propyl-5-methyl-4-oxo-2-imidazolin-2-yl) nicotinic acid] | 60

Same assay, conditions: Mutant 6; groups Strong, Intermediate, Weak, Zero

Row | SMILES | resistance group, Enzyme Assay
3 | CC(C)C1(C)N=C(c2nc3ccccc3cc2C(=O)O)NC1=O (stereo not drawn) [Imazaquin, imazaquin] | Weak
4 | CCc1cnc(C2=NC(=O)C(C)(C(C)C)N2)c(C(=O)O)c1 (stereo not drawn) [Imazethapyr, 5-ethyl-2-(5-iso-propyl-5-methyl-4-oxo-2-imidazolin-2-yl) nicotinic acid] | Weak

Same assay, conditions: fold increase in resistance vs wild type, heterozygous Mutant 6; 30 min

Row | SMILES | Fold Increase
5 | CC(C)C1(C)N=C(c2nc3ccccc3cc2C(=O)O)NC1=O (stereo not drawn) [Imazaquin, imazaquin] | 2
6 | CCc1cnc(C2=NC(=O)C(C)(C(C)C)N2)c(C(=O)O)c1 (stereo not drawn) [Imazethapyr, 5-ethyl-2-(5-iso-propyl-5-methyl-4-oxo-2-imidazolin-2-yl) nicotinic acid] | 40

Each compound was assayed against ALS enzyme extracted from Mutant 7 (heterozygous) (assay: ALS enzyme assay, heterozygous Mutant 7). Settings: ALS of heterozygous Mutant 7; read-out: ID50% (the source's name).
Format: biochemical, Zea mays
Protocol: as §1, §2, §3, §4, §5, §6

Row | SMILES | IC50 [µM]
7 | CC(C)C1(C)N=C(c2nc3ccccc3cc2C(=O)O)NC1=O (stereo not drawn) [Imazaquin, imazaquin] | 1
8 | CCc1cnc(C2=NC(=O)C(C)(C(C)C)N2)c(C(=O)O)c1 (stereo not drawn) [Imazethapyr, 5-ethyl-2-(5-iso-propyl-5-methyl-4-oxo-2-imidazolin-2-yl) nicotinic acid] | 4

Same assay, conditions: Mutant 7; groups Strong, Intermediate, Weak, Zero

Row | SMILES | resistance group, Enzyme Assay
9 | CC(C)C1(C)N=C(c2nc3ccccc3cc2C(=O)O)NC1=O (stereo not drawn) [Imazaquin, imazaquin] | Weak
10 | CCc1cnc(C2=NC(=O)C(C)(C(C)C)N2)c(C(=O)O)c1 (stereo not drawn) [Imazethapyr, 5-ethyl-2-(5-iso-propyl-5-methyl-4-oxo-2-imidazolin-2-yl) nicotinic acid] | Weak

Same assay, conditions: fold increase in resistance vs wild type, heterozygous Mutant 7; 30 min

Row | SMILES | Fold Increase
11 | CC(C)C1(C)N=C(c2nc3ccccc3cc2C(=O)O)NC1=O (stereo not drawn) [Imazaquin, imazaquin] | 2
12 | CCc1cnc(C2=NC(=O)C(C)(C(C)C)N2)c(C(=O)O)c1 (stereo not drawn) [Imazethapyr, 5-ethyl-2-(5-iso-propyl-5-methyl-4-oxo-2-imidazolin-2-yl) nicotinic acid] | 3

The compounds below were run against ALS enzyme extracted from Mutant 9 (heterozygous) (assay: ALS enzyme assay, heterozygous Mutant 9). Settings: ALS of heterozygous Mutant 9; read-out: ID50% (the source's name).
Format: biochemical, Zea mays
Protocol: as §1, §2, §3, §4, §5, §6

Row | SMILES | IC50 [µM]
13 | CC(C)C1(C)N=C(c2nc3ccccc3cc2C(=O)O)NC1=O (stereo not drawn) [Imazaquin, imazaquin] | 50
14 | CCc1cnc(C2=NC(=O)C(C)(C(C)C)N2)c(C(=O)O)c1 (stereo not drawn) [Imazethapyr, 5-ethyl-2-(5-iso-propyl-5-methyl-4-oxo-2-imidazolin-2-yl) nicotinic acid] | 425

Same assay, conditions: Mutant 9; groups Strong, Intermediate, Weak, Zero

Row | SMILES | resistance group, Enzyme Assay
15 | CC(C)C1(C)N=C(c2nc3ccccc3cc2C(=O)O)NC1=O (stereo not drawn) [Imazaquin, imazaquin] | Strong
16 | CCc1cnc(C2=NC(=O)C(C)(C(C)C)N2)c(C(=O)O)c1 (stereo not drawn) [Imazethapyr, 5-ethyl-2-(5-iso-propyl-5-methyl-4-oxo-2-imidazolin-2-yl) nicotinic acid] | Strong

Same assay, conditions: fold increase in resistance vs wild type, heterozygous Mutant 9; 30 min

Row | SMILES | Fold Increase
17 | CC(C)C1(C)N=C(c2nc3ccccc3cc2C(=O)O)NC1=O (stereo not drawn) [Imazaquin, imazaquin] | 83
18 | CCc1cnc(C2=NC(=O)C(C)(C(C)C)N2)c(C(=O)O)c1 (stereo not drawn) [Imazethapyr, 5-ethyl-2-(5-iso-propyl-5-methyl-4-oxo-2-imidazolin-2-yl) nicotinic acid] | 283

Each compound was assayed against ALS enzyme extracted from Mutant 10 (heterozygous) (assay: ALS enzyme assay, heterozygous Mutant 10). Settings: ALS of heterozygous Mutant 10; read-out: ID50% (the source's name).
Format: biochemical, Zea mays
Protocol: as §1, §2, §3, §4, §5, §6

Row | SMILES | IC50 [µM]
19 | CC(C)C1(C)N=C(c2nc3ccccc3cc2C(=O)O)NC1=O (stereo not drawn) [Imazaquin, imazaquin] | 7
20 | CCc1cnc(C2=NC(=O)C(C)(C(C)C)N2)c(C(=O)O)c1 (stereo not drawn) [Imazethapyr, 5-ethyl-2-(5-iso-propyl-5-methyl-4-oxo-2-imidazolin-2-yl) nicotinic acid] | 15

Same assay, conditions: Mutant 10; groups Strong, Intermediate, Weak, Zero

Row | SMILES | resistance group, Enzyme Assay
21 | CC(C)C1(C)N=C(c2nc3ccccc3cc2C(=O)O)NC1=O (stereo not drawn) [Imazaquin, imazaquin] | Weak
22 | CCc1cnc(C2=NC(=O)C(C)(C(C)C)N2)c(C(=O)O)c1 (stereo not drawn) [Imazethapyr, 5-ethyl-2-(5-iso-propyl-5-methyl-4-oxo-2-imidazolin-2-yl) nicotinic acid] | Intermediate

Same assay, conditions: fold increase in resistance vs wild type, heterozygous Mutant 10; 30 min

Row | SMILES | Fold Increase
23 | CC(C)C1(C)N=C(c2nc3ccccc3cc2C(=O)O)NC1=O (stereo not drawn) [Imazaquin, imazaquin] | 12
24 | CCc1cnc(C2=NC(=O)C(C)(C(C)C)N2)c(C(=O)O)c1 (stereo not drawn) [Imazethapyr, 5-ethyl-2-(5-iso-propyl-5-methyl-4-oxo-2-imidazolin-2-yl) nicotinic acid] | 10

What follows are compounds tested on Mutant 1 plants (assay: Cross-resistance testing (glasshouse dose response), Mutant 1). Settings: pre-emergence spray, assessed after four weeks growth.
Format: in vivo, Zea mays
Excerpt: (§7) The seeds used in this screen were populations of mixed tolerant and sensitive seed, segregating 1:1, derived from each of the heterogygous, tolerant mutants crossed with homozygous, sensitive UE95. All of the tolerant progeny are heterozygous for tolerance. Each of the mutants identified above were used except mutant 4. The controls were seed of self-pollinated UE95 which was pollinated in the same year as the tolerant lines.
(§8) One litre of compost was placed in each seed tray of dimensions 19cm x 11cm x 5cm deep and firmed down flat. Two furrows 1 cm deep were drawn in the surface of the compost in each tray and six seeds were sown in each furrow (total twelve seeds per tray). Some trays were sown with 24 seeds, in which case three furrows were made and 8 seeds sown per furrow.
(§9) In each test each tray contained either the seed of one mutant or of the UE95 control for each herbicide application rate and for the untreated control.
(§10) Five different types of ALS-inhibitor herbicides were tested on the mutants plus imazethapyr (PURSUIT) as a comparison. Four rates of each were applied; approximately 0.1x, 0.5x, 1x and 4x the estimated field rates for each herbicide. The rates are the same for mutant 3 to 10 but higher rates for chlorimuron (CLASSIC) and lower rates for chlorsulfuron (GLEAN) were applied to mutants 1 and 2.
(§11) The rates of application used in the screening tests were as follows: chlorimuron (CLASSIC) 4,20,40,160 g/Ha (mutants 1 and 2); and, 8,40,80,320 g/Ha (mutants 3 to 10); chlorsulfuron (GLEAN) 5,25,50,200 g/Ha (mutants 1 and 2); and, 1,5,10,40 g/Ha (mutants 3 to 10); imazaquin (SCEPTER) 30,150,300,1200 g/Ha; triazolopyrimidine 5,25,50,200 g/Ha; phenoxypyrimidine 10,50,100,400 g/Ha; and, imazethapyr (PURSUIT) 30,150,300,1200 g/Ha The triazolopyrimidine and phenoxypyrimidine were formulated in an adjuvant wetting agent known as JF5969 and diluted with water to make a final concentration of 10% JF5969. The remaining compounds were diluted with water only.
(§12) The spray jet and parameters were as decribed above under "SCREENING". After spraying, the seeds were covered with 0.5 litre of compost and firmed down flat (2.5cm covering) and grown under the conditions described under "SCREENING" above.
(§13) Visual assessments were made of the plants after four weeks growth. Each plant was scored on a scale of zero to 5 and the height measured from soil surface to the tallest leaf tip. The scoring scale was as follows: 0 - 0 to 10% damage (little or no herbicidal effect) 1 - 11 to 25% damage 2 - 26 to 50% damage 3 - 51 to […] 4 - 81 to 95% damage 5 - 96 to 100% damage (complete death of the plant) In carrying out these assessments, plants which were obviously of the sensitive phenotype were ignored (approximately 50% of the plants). […]

Row | SMILES | resistance group, Dose Response
25 | CC(C)C1(C)N=C(c2nc3ccccc3cc2C(=O)O)NC1=O (stereo not drawn) [Imazaquin, imazaquin] | Strong
26 | CCc1cnc(C2=NC(=O)C(C)(C(C)C)N2)c(C(=O)O)c1 (stereo not drawn) [Imazethapyr, 5-ethyl-2-(5-iso-propyl-5-methyl-4-oxo-2-imidazolin-2-yl) nicotinic acid] | Strong

Each compound was assayed on Mutant 7 plants (assay: Cross-resistance testing (glasshouse dose response), Mutant 7). Settings: pre-emergence spray, assessed after four weeks growth.
Format: in vivo, Zea mays
Excerpt: as §7, §8, §9, §10, §11, §12, §13

Row | SMILES | resistance group, Dose Response
27 | CC(C)C1(C)N=C(c2nc3ccccc3cc2C(=O)O)NC1=O (stereo not drawn) [Imazaquin, imazaquin] | Zero
28 | CCc1cnc(C2=NC(=O)C(C)(C(C)C)N2)c(C(=O)O)c1 (stereo not drawn) [Imazethapyr, 5-ethyl-2-(5-iso-propyl-5-methyl-4-oxo-2-imidazolin-2-yl) nicotinic acid] | Weak

These compounds were tested on Mutant 8 plants (assay: Cross-resistance testing (glasshouse dose response), Mutant 8). Settings: pre-emergence spray, assessed after four weeks growth.
Format: in vivo, Zea mays
Excerpt: as §7, §8, §9, §10, §11, §12, §13

Row | SMILES | resistance group, Dose Response
29 | CC(C)C1(C)N=C(c2nc3ccccc3cc2C(=O)O)NC1=O (stereo not drawn) [Imazaquin, imazaquin] | Strong
30 | CCc1cnc(C2=NC(=O)C(C)(C(C)C)N2)c(C(=O)O)c1 (stereo not drawn) [Imazethapyr, 5-ethyl-2-(5-iso-propyl-5-methyl-4-oxo-2-imidazolin-2-yl) nicotinic acid] | Strong
